Assay results published in US20240398752A1 (AJOU UNIVERSITY INDUSTRY-ACADEMIC COOPERATION FOUNDATION, priority 2021, published 2024).

Experiments:
[1] = in vivo; conditions: for clearance: CL; for CL renal: CLR; for half-life: Terminal half-life; for Vd: Vss; for Ae0-24 h: urine 24 hours; for reduction in AUC in the LC-ISN group compared to the LC group: isosakuranetin 15 mg/kg
Description: Blood collection was performed at 0, 1, 5, 15, 30, 45, 60, 90, 120, 180, 240, 360, 480, 600, and 720 minutes for intravenous administration of tofacitinib, and at 0, 5, 15, 30, 45, 60, 90, 120, 180, 240, 360, 480, 600, and 720 minutes for oral administration to quantify concentrations of tofacitinib in the plasma. Then, urine was collected for 24 hours to analyze the concentration of tofacitinib excreted in urine as well.

[2] = Description: In the experiment, the concentration of tofacitinib was set at 5, 10, 20, 50, 100, 200, and 500 μM, 1 mg of microsomes and nicotinamide adenine dinucleotide phosphate hydrogen-generating system (Corning Inc., Corning, NY, USA) were blended, and the total volume was adjusted to 1 mL with 0.1 M potassium phosphate buffer (pH 7.4), followed by incubation for 15 minutes at a rate of 50 oscillations per minutes in a water-bath (37° C.). The concentration (Km) of tofacitinib when Vmax, the maximum rate of drug metabolism (Vmax), was halved was measured by the Lineweaver-Burk plot. The intrinsic clearance (CLint) of the drug was calculated by dividing Vmax by Km.
[3] = rat, in vivo, iv, 10 mg/kg, tofacitinib 10 mg/kg intravenous, CON rats
[4] = rat, in vivo, iv, 10 mg/kg, tofacitinib 10 mg/kg intravenous, LC rats
[5] = rat, in vivo, iv, 10 mg/kg, tofacitinib 10 mg/kg intravenous, LC-ISN rats
[6] = rat, in vivo, po, 20 mg/kg, tofacitinib 20 mg/kg oral, CON rats
[7] = rat, in vivo, po, 20 mg/kg, tofacitinib 20 mg/kg oral, LC-ISN 15 rats
[8] = rat, in vivo, po, 20 mg/kg, tofacitinib 20 mg/kg oral, LC rats
[9] = tofacitinib 10 mg/kg intravenous
[10] = tofacitinib 10 mg/kg intravenous, CON rats
[11] = tofacitinib 10 mg/kg intravenous, LC rats
[12] = tofacitinib 10 mg/kg intravenous, LC-ISN rats
[13] = tofacitinib 20 mg/kg oral, CON rats
[14] = tofacitinib 20 mg/kg oral, LC rats
[15] = tofacitinib 20 mg/kg oral, LC-ISN 15 rats

C[C@@H]1CCN(C(=O)CC#N)C[C@@H]1N(C)c1ncnc2[nH]ccc12 [tofacitinib]
AUC ([1]; rat, in vivo, iv, 10 mg/kg, AUC, tofacitinib 10 mg/kg intravenous, CON rats): 7330 ng·h/mL
AUC ([1]; rat, in vivo, iv, 10 mg/kg, AUC, tofacitinib 10 mg/kg intravenous, LC rats): 18900 ng·h/mL
clearance [1, 3]: 24.1 ± 6.27 mL/min/kg
clearance [1, 4]: 11 ± 2.06 mL/min/kg
clearance [1, 5]: 13.8 ± 1.73 mL/min/kg
CL renal [1, 3]: 3.73 ± 1.09 mL/min/kg
CL renal [1, 4]: 4.65 ± 2.74 mL/min/kg
CL renal [1, 5]: 4.1 ± 1.64 mL/min/kg
half-life ([1]; rat, in vivo, iv, 10 mg/kg, tofacitinib 10 mg/kg intravenous, CON (control) rats): 35.4 ± 19.2 min
half-life ([1]; rat, in vivo, iv, 10 mg/kg, tofacitinib 10 mg/kg intravenous, LC rats (liver cirrhosis induced by DMN)): 113 ± 43.7 min
Vd [1, 3]: 0.429 ± 0.253 L/kg
Vd [1, 4]: 0.798 ± 0.177 L/kg
Vd [1, 5]: 0.8 ± 0.326 L/kg
AUC ([1]; rat, in vivo, po, 20 mg/kg, AUC, tofacitinib 20 mg/kg oral, CON rats): 6400 ng·h/mL
AUC ([1]; rat, in vivo, po, 20 mg/kg, AUC, tofacitinib 20 mg/kg oral, LC rats): 33800 ng·h/mL
AUC ([1]; rat, in vivo, po, 20 mg/kg, AUC, tofacitinib 20 mg/kg oral, LC-ISN 15 rats): 20700 ng·h/mL
CL renal [1, 6]: 6.98 ± 2.99 mL/min/kg
CL renal [1, 7]: 5.71 ± 2.47 mL/min/kg
Cmax [1, 6]: 3530 ± 1460 ng/mL
Cmax [1, 8]: 9100 ± 1260 ng/mL
Cmax [1, 7]: 6080 ± 1990 ng/mL
Tmax [1, 6]: 50 min
Tmax [1, 8]: 55.7 min
Tmax [1, 7]: 85.7 min
increase of AUC in the LC group compared to the CON group [1, 9]: 158%
reduction in nonrenal clearance (CLNR) in the LC group compared to the CON group [1, 9]: 69.9%
reduction in total body clearance (CL) in the LC group compared to the CON group [1, 9]: 54.4%
CLNR [1, 10]: 21.1 ± 4.57 mL/min/kg
GI24 h [1, 10]: 0.164 ± 0.102 % of dose
Ae0-24 h [1, 10]: 13.9 ± 2.28 % of dose
CLNR [1, 11]: 6.35 ± 1.27 mL/min/kg
GI24 h [1, 11]: 2.07 ± 2.12 % of dose
Ae0-24 h [1, 11]: 40.2 ± 18.9 % of dose
AUC [1, 12]: 12300 ± 1780 ng·h/mL
CLNR [1, 12]: 9.68 ± 2.40 mL/min/kg
GI24 h [1, 12]: 0.166 ± 0.135 % of dose
Terminal half-life ([1]; tofacitinib 10 mg/kg intravenous, LC-ISN rats (LC treated with isosakuranetin 15 mg/kg)): 58.2 ± 16.8 min
Ae0-24 h [1, 12]: 30.1 ± 12.3 % of dose
reduction in AUC in the LC-ISN group compared to the LC group [1, 9]: 35.1%
increase of AUC in the LC group compared to the CON group ([1]; tofacitinib 20 mg/kg oral): 429%
F [1, 13]: 43.6%
GI24 h [1, 13]: 0.106 ± 0.101 % of dose
Ae0-24 h [1, 13]: 11.8 ± 4.08 % of dose
CLR [1, 14]: 3.62 ± 1.78 mL/min/kg
F [1, 14]: 89.5%
GI24 h [1, 14]: 1.73 ± 2.04 % of dose
Ae0-24 h [1, 14]: 35.8 ± 16.9 % of dose
F [1, 15]: 84.1%
GI24 h [1, 15]: 0.340 ± 0.288 % of dose
Ae0-24 h [1, 15]: 35.9 ± 16.8 % of dose
reduction in AUC in the LC-ISN group compared to the LC group ([1]; tofacitinib 20 mg/kg oral): 38.9%
Km in the three groups (CON, LC, LC-ISN) ([2]; hepatic microsome): No significant difference
decrease of Vmax in the LC group compared to the CON group ([2]; hepatic microsome): 63.4%
increase of Vmax in the LC-ISN group compared to the LC group ([2]; hepatic microsome): 204%
CLint of the LC-ISN group recovered to % of the CON group ([2]; hepatic microsomes): 92.2%
decrease of CLint in the LC group compared to the CON group ([2]; hepatic microsomes): 64.9%
increase of CLint in the LC-ISN group compared to the LC group ([2]; hepatic microsomes): 163%
CLint in the LC group compared to the CON group and the LC-ISN group ([2]; small intestinal microsome): no statistically significant difference
